Experimental data from US20240246942A1, “KINASE INHIBITORS FOR THE TREATMENT OF NEURODEGENERATIVE DISEASES” (priority 2020, published 2024).

Columns and labels:
CYP2D6 = CYP2D6 (Homo sapiens, UniProt P10635); experiment: P450 cocktail inhibition assay, CYP2D6; type: in vitro ADME; conditions: at 10 μM
Experimental: (§1) P450s inhibition for four major isoforms are evaluated using a cocktail inhibition assay where the metabolism of specific marker substrate (CYP1A2 phenaceten […] to acetaminophen); CYP2C9, tolbutamide hydroxylation to hydrocytolbutamide; CYP2D6, bufuralol hydroxylation to […]; and CYP3A4, midazolam hydroxylation to 1′-Hydroxymidazolam) in the presence or absence of 10 TM probe compound is evaluated. The concentration of each marker substrate is approximately its Km. […] Specific inhibitors for each isoform are included in each run to validate the system.

[1] = tested on: JNK3-dependent phosphorylation of APP at T668; experiment: JNK3 inhibition assay in rat primary neuron cultures (Western blot, anisomycin activated); type: cell-based; conditions: even at a concentration as low as 10 nM; FIGS. 5A-5C
Experimental: Both hippocampal and cortical neurons were isolated from E18 rat embryos and cultured in NbActive 1 medium that contains B27 (Brainbits, LLC) plus penicillin/streptomycin (Life Technologies). At the 7th day in culture, cells were treated with different concentrations of inhibitors diluted in DMSO and 80 ng/ml Anisomycin for 30 min to activate the endogenous JNK3. At the end of incubation time, whole cell lysates were prepared in RIPA buffer containing 50 mM Tris (pH 8.0), 150 mM NaCl, 2 mM EDTA, 1% NP-40, 0.5% deoxycholate supplemented with 10 mM Na pyrophosphate, 1 mM sodium orthovanadate, 25 mM NaF, 10 μg/ml leupeptin, 10 μg/ml aprotinin, 1 mM β-glycerophosphate, and 2 mM PMSF. The lysates were subjected to Western blotting to detect whether inhibitors block JNK3-dependent phosphorylation of APP at T668 and c-jun at S73. Phospho-APP^T668, phosphor-c-jun^S73, APP, and c-jun antibodies were from Cell Signaling Technology.

SHSY5Y cells = experiment: MTT cytotoxicity assay; type: cell-based; parameters: dose or concentration left out as unconfirmed; conditions: 48 hrs, average of ≥2 experiments;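 further: compounds tested at 10 µM final concentration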
Experimental: A day before the assay, cells were plated at 50,000/well in 96 well plates in the culture medium. […] After the incubation, cells were subjected to MTT assay using Vybrant MTT Cell Proliferation kit as directed by the vendor (Life Technologies).

CYP3A4 = CYP3A4 (Homo sapiens, UniProt P08684); experiment: P450 cocktail inhibition assay, CYP3A4; type: in vitro ADME; conditions: at 10 μM
CYP3A4, sequence (P08684 whole entry): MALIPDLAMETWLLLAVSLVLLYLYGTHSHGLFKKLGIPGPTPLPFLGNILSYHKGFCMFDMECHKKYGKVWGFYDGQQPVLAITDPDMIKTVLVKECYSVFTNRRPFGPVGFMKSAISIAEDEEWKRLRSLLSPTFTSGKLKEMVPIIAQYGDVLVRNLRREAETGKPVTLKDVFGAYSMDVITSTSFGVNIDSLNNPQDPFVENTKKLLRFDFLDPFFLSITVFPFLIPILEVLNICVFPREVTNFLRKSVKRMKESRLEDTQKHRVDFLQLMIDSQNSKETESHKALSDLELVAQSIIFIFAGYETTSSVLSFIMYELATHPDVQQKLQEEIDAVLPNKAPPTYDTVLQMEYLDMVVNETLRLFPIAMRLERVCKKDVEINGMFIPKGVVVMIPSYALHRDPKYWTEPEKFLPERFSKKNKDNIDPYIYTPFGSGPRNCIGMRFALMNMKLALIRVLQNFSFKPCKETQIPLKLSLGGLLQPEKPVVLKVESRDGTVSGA
Experimental: as §1

[2] = Microsomal stability, mouse; type: in vitro ADME; conditions: mouse microsomes
CYP1A2 = target: T1, CYP1A2 (Homo sapiens, UniProt P05177); experiment: P450 cocktail inhibition assay, CYP1A2; type: in vitro ADME; conditions: at 10 μM
T1 sequence (P05177 1-516): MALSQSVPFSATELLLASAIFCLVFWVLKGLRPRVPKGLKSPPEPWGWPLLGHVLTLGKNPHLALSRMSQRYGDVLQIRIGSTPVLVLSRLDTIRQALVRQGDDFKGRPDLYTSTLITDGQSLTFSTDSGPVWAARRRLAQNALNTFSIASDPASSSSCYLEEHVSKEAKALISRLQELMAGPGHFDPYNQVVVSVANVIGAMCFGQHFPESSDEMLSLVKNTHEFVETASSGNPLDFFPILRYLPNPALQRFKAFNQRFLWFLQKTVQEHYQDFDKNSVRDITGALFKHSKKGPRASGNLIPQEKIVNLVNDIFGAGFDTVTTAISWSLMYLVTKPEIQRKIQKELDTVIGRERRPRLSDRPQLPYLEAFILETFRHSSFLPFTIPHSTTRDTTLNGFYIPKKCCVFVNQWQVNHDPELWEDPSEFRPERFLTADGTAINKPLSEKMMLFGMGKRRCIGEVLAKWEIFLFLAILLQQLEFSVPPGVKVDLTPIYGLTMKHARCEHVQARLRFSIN
Experimental: as §1

[3] = Microsomal stability, human; type: in vitro ADME; conditions: human microsomes
CYP2C9 = CYP2C9 (Homo sapiens, UniProt P11712); experiment: P450 cocktail inhibition assay, CYP2C9; type: in vitro ADME; conditions: at 10 μM
CYP2C9, sequence (P11712 whole entry): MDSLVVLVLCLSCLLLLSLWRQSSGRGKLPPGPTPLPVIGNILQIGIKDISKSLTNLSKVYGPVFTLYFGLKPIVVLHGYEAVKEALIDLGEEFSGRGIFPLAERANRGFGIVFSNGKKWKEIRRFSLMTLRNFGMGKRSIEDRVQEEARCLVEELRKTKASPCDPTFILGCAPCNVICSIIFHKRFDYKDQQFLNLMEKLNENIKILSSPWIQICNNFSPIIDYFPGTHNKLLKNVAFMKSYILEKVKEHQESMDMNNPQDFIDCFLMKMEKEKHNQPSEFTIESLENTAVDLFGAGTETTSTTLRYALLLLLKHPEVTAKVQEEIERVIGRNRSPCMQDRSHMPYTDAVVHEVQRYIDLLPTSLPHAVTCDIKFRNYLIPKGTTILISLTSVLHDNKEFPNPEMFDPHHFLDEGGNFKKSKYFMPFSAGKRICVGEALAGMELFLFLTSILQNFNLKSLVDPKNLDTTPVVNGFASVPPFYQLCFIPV
Experimental: as §1

JNK3α1 = JNK3α1 (Homo sapiens, UniProt P53779); type: biochemical; conditions: for IC50: mean of ≥2 experiments, read-out: Biochemical inhibition IC50 JNK3
JNK3α1, sequence (P53779 1-422 isoform P53779-2): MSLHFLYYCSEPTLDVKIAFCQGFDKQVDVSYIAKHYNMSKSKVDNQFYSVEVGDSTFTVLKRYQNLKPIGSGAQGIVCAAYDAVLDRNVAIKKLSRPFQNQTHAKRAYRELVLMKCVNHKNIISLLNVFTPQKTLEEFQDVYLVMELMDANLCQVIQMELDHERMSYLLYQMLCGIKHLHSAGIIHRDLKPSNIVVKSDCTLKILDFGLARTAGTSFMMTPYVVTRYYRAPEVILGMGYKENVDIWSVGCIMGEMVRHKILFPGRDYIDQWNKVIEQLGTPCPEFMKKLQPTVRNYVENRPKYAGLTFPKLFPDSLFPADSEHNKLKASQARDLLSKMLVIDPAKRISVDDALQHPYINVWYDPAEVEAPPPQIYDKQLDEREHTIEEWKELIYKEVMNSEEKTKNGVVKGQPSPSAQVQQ
Experimental: (§2) A 10-point titration of all compounds was carried out in 3-fold dilutions from 10 μM to 0.5 nM.

JNK1 = JNK1 (Homo sapiens, UniProt P45983); experiment: JNK1 homogeneous time-resolved fluorescence enzyme inhibition assay; type: biochemical; conditions: for R: ratio of IC50 values of JNK1 over JNK3: isoform selectivity against JNK1; for IC50: mean of ≥2 experiments, read-out: Biochemical inhibition IC50 JNK1
JNK1, sequence (P45983 whole entry, canonical isoform): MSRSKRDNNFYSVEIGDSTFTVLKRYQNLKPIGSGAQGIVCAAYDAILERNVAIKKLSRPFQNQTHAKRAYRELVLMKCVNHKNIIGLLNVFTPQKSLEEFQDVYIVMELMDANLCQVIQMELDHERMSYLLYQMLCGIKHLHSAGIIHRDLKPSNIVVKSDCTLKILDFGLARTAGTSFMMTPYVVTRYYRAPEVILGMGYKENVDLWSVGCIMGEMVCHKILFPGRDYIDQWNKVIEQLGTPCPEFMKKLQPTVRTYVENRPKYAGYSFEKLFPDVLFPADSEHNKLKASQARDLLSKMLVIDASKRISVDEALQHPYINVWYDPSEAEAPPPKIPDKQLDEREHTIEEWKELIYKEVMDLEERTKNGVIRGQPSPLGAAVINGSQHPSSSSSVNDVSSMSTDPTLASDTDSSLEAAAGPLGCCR
Experimental: as §2

p38α = p38α (Homo sapiens, UniProt Q16539); experiment: p38 enzyme inhibition assay; conditions: mean of ≥2 experiments; read-out: Biochemical inhibition IC50 p38α
p38α, sequence (Q16539 whole entry, canonical isoform): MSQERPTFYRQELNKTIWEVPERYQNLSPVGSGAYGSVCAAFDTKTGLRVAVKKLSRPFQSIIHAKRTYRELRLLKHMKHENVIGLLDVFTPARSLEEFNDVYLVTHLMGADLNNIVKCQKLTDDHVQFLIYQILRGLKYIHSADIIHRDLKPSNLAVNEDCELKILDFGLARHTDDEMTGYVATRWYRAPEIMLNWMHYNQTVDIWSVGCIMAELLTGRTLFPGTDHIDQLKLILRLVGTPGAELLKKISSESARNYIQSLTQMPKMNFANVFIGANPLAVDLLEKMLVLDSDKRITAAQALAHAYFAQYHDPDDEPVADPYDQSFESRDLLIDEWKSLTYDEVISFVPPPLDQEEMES

JNK2 = JNK2 (Homo sapiens, UniProt P45984); experiment: JNK2 homogeneous time-resolved fluorescence enzyme inhibition assay; type: biochemical; conditions: for R: ratio of IC50 values of JNK2 over JNK3: isoform selectivity against JNK2; for IC50: mean of ≥2 experiments, read-out: Biochemical inhibition IC50 JNK2
JNK2, sequence (P45984 whole entry, canonical isoform): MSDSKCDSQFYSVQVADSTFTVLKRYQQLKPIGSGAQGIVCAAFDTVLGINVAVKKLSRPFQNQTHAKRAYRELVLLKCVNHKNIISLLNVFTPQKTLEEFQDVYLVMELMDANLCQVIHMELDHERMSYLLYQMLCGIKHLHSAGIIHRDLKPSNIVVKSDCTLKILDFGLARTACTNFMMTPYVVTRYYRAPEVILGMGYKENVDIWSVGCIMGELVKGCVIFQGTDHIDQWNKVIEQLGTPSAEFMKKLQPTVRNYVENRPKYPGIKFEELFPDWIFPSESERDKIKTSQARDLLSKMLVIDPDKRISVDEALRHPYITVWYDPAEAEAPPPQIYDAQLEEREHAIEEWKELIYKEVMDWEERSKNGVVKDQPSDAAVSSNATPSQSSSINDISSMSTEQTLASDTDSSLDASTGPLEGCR
Experimental: as §2

CYP2D6, sequence (P10635 whole entry, canonical isoform): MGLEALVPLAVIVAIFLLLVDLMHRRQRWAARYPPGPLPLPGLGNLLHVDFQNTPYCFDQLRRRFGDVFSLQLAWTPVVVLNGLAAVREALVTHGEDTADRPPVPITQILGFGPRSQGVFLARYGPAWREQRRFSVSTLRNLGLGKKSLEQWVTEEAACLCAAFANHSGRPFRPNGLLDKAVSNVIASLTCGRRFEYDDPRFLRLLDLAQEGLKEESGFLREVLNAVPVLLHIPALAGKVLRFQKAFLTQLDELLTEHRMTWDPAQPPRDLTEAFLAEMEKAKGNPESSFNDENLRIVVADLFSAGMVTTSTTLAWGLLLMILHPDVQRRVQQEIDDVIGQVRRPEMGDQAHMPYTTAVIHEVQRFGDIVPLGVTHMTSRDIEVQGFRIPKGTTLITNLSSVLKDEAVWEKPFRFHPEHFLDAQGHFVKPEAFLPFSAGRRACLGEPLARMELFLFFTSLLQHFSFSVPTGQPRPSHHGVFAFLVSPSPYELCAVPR

reduction in JNK3 inhibitions (JNK3α1; compared to 16)	Structure (SMILES)	CYP-450 % inh. 2D6 (CYP2D6)	inhibition of phosphorylation of residue T668 of APP [1]	MTT cell viability (SHSY5Y cells)	CYP-450 % inh. 3A4 (CYP3A4)	Mic. stability t1/2 Mouse [2]	CYP-450 % inh. 1A2 (CYP1A2)	Mic. stability t1/2 Human [3]	CYP-450 % inh. 2C9 (CYP2C9)	IC50 (JNK3α1)	R: ratio of IC50 values of JNK1 over JNK3 (JNK1)	IC50 (JNK1)	IC50 (p38α)	R: ratio of IC50 values of JNK2 over JNK3 (JNK2)	IC50 (JNK2)	isoform selectivity against JNK2 vs JNK3 (JNK2)
	O=C(Nc1cnn(-c2csc(C(=O)NC3COC3)c2)c1)Nc1ccc(F)cc1Cl [Compound 26, 4-(4-(3-(2-chloro-4-fluorophenyl)ureido)-1H-pyrazol-1-yl)-N-(oxetan-3-yl)thiophene-2-carboxamide]	30%	significantly inhibited	104%	−5%	68 min	38%	>120 min	47%							
7 fold	Cc1sc(C(=O)N[C@@H]2CCOC2)cc1-n1cc(NC(=O)Nc2c(F)cccc2Cl)cn1 [Compound 28, (R)-4-(4-(3-(2-chloro-6-fluorophenyl)ureido)-1H-pyrazol-1-yl)-5-methyl-N-(tetrahydrofuran-3-yl)thiophene-2-carboxamide]	17%	significantly inhibited	114%	26%	38 min	34%	40 min	35%							
	O=C(Nc1cnn(-c2csc(C(=O)NCC3CCOCC3)c2)c1)Nc1ccccc1Cl [Compound 24, 4-(4-(3-(2-chlorophenyl)ureido)-1H-pyrazol-1-yl)-N-((tetrahydro-2H-pyran-4-yl)methyl)thiophene-2-carboxamide]	32%		95%	21%	15 min	36%	8 min	64%	0.024 µM	63	1.5 µM	> 20 µM	34	0.81 µM	
	O=C(Nc1cnn(-c2csc(C(=O)NC3CC3)c2)c1)Nc1ccccc1Cl [Compound 8, 4-(4-(3-(2-chlorophenyl)ureido)-1H-pyrazol-1-yl)-N-cyclopropylthiophene-2-carboxamide]	−29%		103%	−45%	35 min	−2%	49 min	−4%	0.08 µM	93	7.4 µM	> 20 µM	40	3.2 µM	around 40 folds
